Reference: patent US7081447B2, “Organic compounds with biological activity as thrombin inhibitors and use thereof” (Novel Science International GmbH, priority 2001, dated 2006)
Blank lines part the entries; values can stand above or below the compound they belong to. Non-standard residues stand in square brackets, D forms with d. Residues, ends and D or L forms follow the SMILES beside them. Cha = N[CH](CC1CCCCC1)C(=O)O; Nle = CCCC[CH](N)C(=O)O; Orn = NCCC[CH](N)C(=O)O

Target: thrombin (Homo sapiens, UniProt P00734)
Assay: in vitro inhibition of thrombin amidase activity (fluorogenic substrate Tos-Gly-Pro-Arg-(7-amino-4-methylcoumarin))
Type: biochemical
Set-up: with 10 μL of human thrombin solution
Conditions: for inhibition at 25 µM: peptide concentration of 25 μM; for inhibition at 10 µM: peptide concentration of 10 μM
Protocol: (§1) The values of the inhibition constant Ki were obtained from assays, in which thrombin hydrolyzes the fluorogenic substrate Tos-Gly-Pro-Arg-(7-amino-4-methylcoumarin). The assays were performed in 30 μL of assay buffer (0.05 M Tris, 0.1 M NaCl, 0.1% PEG 8000, pH 7.6) with 10 μL of human thrombin solution (10^−5 U/μL in assay buffer) and 140 μL of a solution of the fluorogenic substrate in assay buffer at a concentration v of 30 μM. Solutions of the test compound (10 μL) were added at various concentrations. The rates of substrate hydrolysis were measured by monitoring the reactions of 7-amino-4-methylcoumarin release at 460 nm with use of AMC. The reaction reached a steady state within 3 minutes after thrombin was combined with the substrate and an inhibitor. The kinetic data of the competitive inhibition (Km, Vmax, and Ki) were analyzed with the aid of the Hanes plot (A/V vs. A at various i values).
as §1, with “concentration” for “concentration v”, “using” for “with the aid of”, “values for A; here, A is the substrate concentration and V the reaction rate).” for “i values).”
as §1, with “conducted” for “performed”, “concentration” for “concentration v”, “using” for “with the aid of”, “values for A; here, A is the substrate concentration and V the reaction rate).” for “i values).”

[1] = peptide concentration of 1 μM, 1 µM
[2] = peptide concentration of 250 nM

Compound: [H]/N=C(\N)NCCCC(NC(C)=O)C(=O)NC(CC1CCCCC1)C(=O)NC(CCCC)C(=O)NC(CC1CCCCC1)C(=O)NC(CCC(N)=O)C(N)=O [Example 1, N-Acetyl-L-Arg-L-Cha-L-Nle-L-Cha-D-Gln amide]
inhibition at 25 µM: 66%

Compound: [H]/N=C(\N)NCCCC(NC(C)=O)C(=O)NC(CC1CCCCC1)C(=O)NC(CC(=O)O)C(=O)NC(CC1CCCCC1)C(N)=O [Example 2, N-Acetyl-L-Arg-L-Cha-L-Asp-L-Cha amide]
inhibition at 25 µM: 68%

Compound: CCCCC(NC(=O)C(CC1CCCCC1)NC(=O)C(CCCNC(=N)N)NC(C)=O)C(=O)NC(CC1CCCCC1)C(=O)NC(CCCN)C(N)=O [Example 3, N-Acetyl-L-Arg-L-Cha-L-Nle-L-Cha-L-Orn amide] (Ac-R[Cha][Nle][Cha][Orn]-NH2; configuration not given here)
inhibition at 10 µM: 63%

Compound: CC(=O)NC(CCCNC(=N)N)C(=O)NC(CC1CCCCC1)C(=O)NC(CC1CCCCC1)C(=O)NC(CC1CCCCC1)C(=O)NC(CCC(=O)O)C(N)=O [Example 4, N-Acetyl-L-Arg-L-Cha-L-Cha-L-Cha-D-Glu amide] (Ac-R[Cha][Cha][Cha]E-NH2; configuration not given here)
inhibition at 10 µM: 78%

Compound: [H]/N=C(\N)NCCCC(NC(=O)C(Cc1ccc(O)cc1)NC(=O)C1CCCN1C(=O)C(CC1CCCCC1)NC(=O)C(CCCN/C(N)=N/[H])NC(C)=O)C(N)=O [Example 5, N-Acetyl-L-Arg-L-Cha-D-Pro-D-Tyr-L-Arg amide]
inhibition at 10 µM: 98%

Compound: [H]/N=C(\N)NCCCC(NC(C)=O)C(=O)NC(CC1CCCCC1)C(=O)NC(CC1CCCCC1)C(=O)NC(CC1CCCCC1)C(=O)NC(CCCN)C(N)=O [Example 6, N-Acetyl-L-Arg-L-Cha-L-Cha-L-Cha-L-Orn amide]
inhibition at 10 µM: 71%

Compound: CCCCC(NC(=O)C(CC1CCCCC1)NC(=O)C(CCCNC(=N)N)NC(C)=O)C(=O)NC(CC1CCCCC1)C(N)=O [Example 7, N-Acetyl-L-Arg-L-Cha-L-Nle-L-Cha amide] (Ac-R[Cha][Nle][Cha]-NH2; configuration not given here)
inhibition at 10 µM: 60%

Compound: CCCCC(NC(=O)C(CC1CCCCC1)NC(=O)C(CCCNC(=N)N)NC(C)=O)C(=O)NC(CC1CCCCC1)C(=O)NC(CCC(=O)O)C(N)=O [Example 8, N-Acetyl-L-Arg-L-Cha-L-Nle-L-Cha-D-Glu amide] (Ac-R[Cha][Nle][Cha]E-NH2; configuration not given here)
inhibition at 1 µM (peptide concentration of 1 μM): 35%

Compound: N-Acetyl-D-Gln-D-His-L-Cha-D-Pro-D-Tyr-L-Arg amide [Example 25]
Thrombin inhibition (thrombin amidase activity) (peptide concentration of 1 μM): 59%

Compound: N-Acetyl-D-Glu-L-Cha-D-Pro-D-Tyr-L-Arg amide [Example 26]
Thrombin inhibition (thrombin amidase activity) (peptide concentration of 1 μM): 58%

Compound: N-Acetyl-D-Lys-D-Pro-L-Cha-D-Pro-D-Tyr-L-Arg amide [Example 14]
Thrombin inhibition (thrombin amidase activity) (peptide concentration of 1 μM): 53%

Compound: N-Acetyl-D-Lys-L-Nle-L-Cha-D-Pro-D-Tyr-L-Arg amide [Example 20]
Thrombin inhibition (thrombin amidase activity) [1]: 44%

Compound: N-Acetyl-D-Tyr-L-Cha-D-Pro-D-Tyr-L-Arg amide [Example 24]
Thrombin inhibition (thrombin amidase activity) [1]: 27%

Compound: N-Acetyl-D-Val-D-His-L-Cha-D-Pro-D-Tyr-L-Arg amide [Example 27]
Thrombin inhibition (thrombin amidase activity) (peptide concentration of 1 μM): 51%

Compound: N-Acetyl-D-Val-L-Ala-L-Cha-D-Pro-D-Tyr-L-Arg amide [Example 9]
Thrombin inhibition (thrombin amidase activity) (peptide concentration of 1 μM): 53%

Compound: N-Acetyl-D-Val-L-Cha-D-Pro-D-Tyr-L-Arg amide [Example 12]
Thrombin inhibition (thrombin amidase activity) [1]: 46%

Compound: N-Acetyl-D-Val-L-Cha-D-Pro-D-Tyr-L-Arg amide [Example 32]
Thrombin inhibition (thrombin amidase activity) [1]: 45%

Compound: N-Acetyl-L-Ala-L-Cha-D-Pro-D-Tyr-L-Arg amide [Example 28]
Thrombin inhibition (thrombin amidase activity) (peptide concentration of 1 μM): 44%

Compound: N-Acetyl-L-Arg-L-Cha-D-Pro-D-Tyr-L-Arg amide [Example 21]
Thrombin inhibition (thrombin amidase activity) [1]: 38%

Compound: N-Acetyl-L-Asp-L-Ser-L-Cha-D-Pro-D-Tyr-L-Arg amide [Example 10]
Thrombin inhibition (thrombin amidase activity) (peptide concentration of 1 μM): 51%

Compound: N-Acetyl-L-Ile-L-Arg-L-Cha-D-Pro-D-Tyr-L-Arg amide [Example 29]
Thrombin inhibition (thrombin amidase activity) (peptide concentration of 1 μM): 61%

Compound: N-Acetyl-L-Ile-L-Cha-D-Pro-D-Tyr-L-Arg amide [Example 11]
Thrombin inhibition (thrombin amidase activity) (peptide concentration of 1 μM): 48%

Compound: N-Acetyl-L-Ser-D-Glu-L-Cha-D-Pro-D-Tyr-L-Arg amide [Example 23]
Thrombin inhibition (thrombin amidase activity) (peptide concentration of 1 μM): 21%

Compound: N-Acetyl-L-Ser-D-Val-L-Cha-D-Pro-D-Tyr-L-Arg amide [Example 16]
Thrombin inhibition (thrombin amidase activity) (peptide concentration of 1 μM): 48%

Compound: N-Acetyl-L-Ser-L-Ala-L-Cha-D-Pro-D-Tyr-L-Arg amide [Example 17]
Thrombin inhibition (thrombin amidase activity) [1]: 48%

Compound: N-Acetyl-L-Ser-L-Ala-L-Cha-D-Pro-D-Tyr-L-Arg amide [Example 34]
Thrombin inhibition (thrombin amidase activity) [1]: 47%

The next lines start with the values.

Thrombin inhibition (thrombin amidase activity) [1]: 48%
Compound: N-Acetyl-D-Lys-L-Nle-L-Cha-D-Pro-D-Tyr-L-Arg amide [Example 36]

Thrombin inhibition (thrombin amidase activity) [1]: 48%
Compound: N-Acetyl-D-Lys-L-Nle-L-Cha-D-Pro-D-Tyr-L-Arg amide [Example 51]

Thrombin inhibition (thrombin amidase activity) [1]: 48%
Compound: N-Acetyl-D-Lys-L-Nle-L-Cha-D-Pro-D-Tyr-L-Arg amide [Example 69]

Thrombin inhibition (thrombin amidase activity) [2]: 77%
Compound: N-Acetyl-D-Phe-D-Cha-L-Aze-D-Tyr-L-Har amide [Example 77]

Thrombin inhibition (thrombin amidase activity) [1]: 47%
Compound: N-Acetyl-D-Tyr-L-Cha-D-Pro-D-Tyr-L-Arg amide [Example 37]

Thrombin inhibition (thrombin amidase activity) [1]: 47%
Compound: N-Acetyl-D-Tyr-L-Cha-D-Pro-D-Tyr-L-Arg amide [Example 52]

Thrombin inhibition (thrombin amidase activity) [1]: 47%
Compound: N-Acetyl-D-Tyr-L-Cha-D-Pro-D-Tyr-L-Arg amide [Example 70]

Thrombin inhibition (thrombin amidase activity) [1]: 45%
Compound: N-Acetyl-D-Val-L-Cha-D-Pro-D-Tyr-L-Arg amide [Example 47]

Thrombin inhibition (thrombin amidase activity) [1]: 45%
Compound: N-Acetyl-D-Val-L-Cha-D-Pro-D-Tyr-L-Arg amide [Example 65]

Thrombin inhibition (thrombin amidase activity) (peptide concentration of 1 μM): 63%
Compound: N-Acetyl-L-Ala-D-Cha-L-Aze-D-Tyr-L-Arg amide [Example 55]

Thrombin inhibition (thrombin amidase activity) (peptide concentration of 1 μM): 83%
Compound: N-Acetyl-L-Ala-D-Cha-L-Aze-D-Tyr-L-Har amide [Example 57]

Thrombin inhibition (thrombin amidase activity) [2]: 77%
Compound: N-Acetyl-L-Ala-D-Cha-L-Aze-D-Tyr-L-Har amide [Example 76]

Thrombin inhibition (thrombin amidase activity) (peptide concentration of 1 μM): 56%
Compound: N-Acetyl-L-Ala-D-Cha-L-Pro-D-Tyr-L-Har amide [Example 56]

Thrombin inhibition (thrombin amidase activity) [1]: 47%
Compound: N-Acetyl-L-Arg-L-Cha-D-Pro-D-Tyr-L-Arg amide [Example 38]

Thrombin inhibition (thrombin amidase activity) [1]: 47%
Compound: N-Acetyl-L-Arg-L-Cha-D-Pro-D-Tyr-L-Arg amide [Example 53]

Thrombin inhibition (thrombin amidase activity) [1]: 47%
Compound: N-Acetyl-L-Arg-L-Cha-D-Pro-D-Tyr-L-Arg amide [Example 71]

Thrombin inhibition (thrombin amidase activity) [2]: 90%
Compound: N-Acetyl-L-Cha-D-Cha-L-Aze-D-Tyr-L-Har amide [Example 85]

Thrombin inhibition (thrombin amidase activity) [2]: 75%
Compound: N-Acetyl-L-Dcp-D-Cha-L-Aze-D-Tyr-L-Har amide [Example 78]

Thrombin inhibition (thrombin amidase activity) [2]: 72%
Compound: N-Acetyl-L-Iq3-D-Cha-L-Aze-D-Tyr-L-Har amide [Example 80]

Thrombin inhibition (thrombin amidase activity) [2]: 80%
Compound: N-Acetyl-L-Nhm-D-Cha-L-Aze-D-Tyr-L-Har amide [Example 79]

Thrombin inhibition (thrombin amidase activity) [2]: 89%
Compound: N-Acetyl-L-Nle-D-Cha-L-Aze-D-Tyr-L-Har amide [Example 84]

Thrombin inhibition (thrombin amidase activity) [2]: 95%
Compound: N-Acetyl-L-Phg-D-Cha-L-Aze-D-Tyr-L-Har amide [Example 83]

Thrombin inhibition (thrombin amidase activity) [2]: 72%
Compound: N-Acetyl-L-Pnp-D-Cha-L-Aze-D-Tyr-L-Har amide [Example 86]

Thrombin inhibition (thrombin amidase activity) [2]: 76%
Compound: N-Acetyl-L-Ppd-D-Cha-L-Aze-D-Tyr-L-Har amide [Example 81]

Thrombin inhibition (thrombin amidase activity) [1]: 47%
Compound: N-Acetyl-L-Ser-L-Ala-L-Cha-D-Pro-D-Tyr-L-Arg amide [Example 49]
